Test results from US20230032020A1, “SMALL-MOLECULE COVALENT INHIBITION OF RAL GTPASES” (THE TRUSTEES OF INDIANA UNIVERSITY, priority 2019, published 2023).
Substitutions are numbered along the chain they refer to. Like-named read-outs stand apart in the source and are kept apart here.

Columns and labels:
RalB = biological target: T1, RalB (Homo sapiens, UniProt P11234); assay: Rgl2-mediated guanine nucleotide exchange assay (BODIPY-FL-GDP fluorescence), RalB wild-type; type: biochemical; details: for improvement in IC50 at 24 h compared to Compound 1: RalB WT
T1 construct: made in house; host or cells: E. coli BL21(DE3)
T1 sequence (P11234 12-185): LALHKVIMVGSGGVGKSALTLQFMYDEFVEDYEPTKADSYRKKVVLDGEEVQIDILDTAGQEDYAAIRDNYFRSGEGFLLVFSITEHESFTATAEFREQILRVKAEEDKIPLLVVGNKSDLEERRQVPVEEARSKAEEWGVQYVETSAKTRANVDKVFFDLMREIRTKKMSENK
Description: Fragment-based screening using a library of 89 sulfonyl fluoride compounds was carried out to explore this possibility. A fluorescence-based guanine nucleotide exchange assay was used to measure inhibition of Rgl2-mediated exchange of Ral-bound GDP with fluorescently-labelled boron-dipyrromethene fluorescent GDP (BODIPY-FL-GDP). The increase in fluorescence intensity of the BODIPY-FL group is measured at 30 s intervals.
(§1) A concentration-dependent exchange study then was carried out to obtain the concentration of compound required for 50% inhibition of Rgl2-mediated exchange, as illustrated in FIG. 1D. This was done by incubating RalB with varying concentrations of Compound 1 for 24 hours at a temperature of 4° C., prior to the initiation of nucleotide exchange by the addition of Rgl2 and BODIPY-FL-GDP. The rate constant was calculated by fitting a 3-parameter exponential function for each measurement. To determine percent inhibition, the fitting was also done for control DMSO samples and samples without Rgl2.
(§2) Exchange Assay: 10 μL of RalB (2 μM), RalA (2 μM), and Ras (0.8 μM) in an exchange assay buffer (100 mM NaCl, 10 mM MgCl2, 20 mM Tris pH 8, 0.01% IGEPAL) were added to a 384-well, black, round bottom, low volume, polystyrene plate (Corning, Corning, N.Y., Catalog Number: 4515) and incubated with 2 μL of varying concentrations of compounds in the exchange assay buffer supplemented with 20% v/v DMSO for 24 h (unless otherwise specified) at 4° C. After the incubation, 5 μL of RGL2 (1 μM), SOS (0.4 μM) or buffer was added. Finally, 3 μL of Bodipy-FL-GDP (1.67 μM for RalA/B, 1.0 μM for Ras) was added and the fluorescence was read immediately on an Envision Multilabel Plate Reader (PerkinElmer, Waltham, Mass.) using a filter set with excitation and emission wavelengths of 485 and 535 nm, respectively, for 40 min at 30 sec intervals.
(§3) The fluorescence increase over time was fitted to an exponential function:
(§4) Fluorescence Intensity=Initial Fluorescence+Extent of binding (1−e^−Rate×Time)
(§5) The rate constant of the exchange was calculated by fitting experimental values for Fluorescence Intensity and corresponding Time. The Initial Fluorescence was estimated from the initial reading of the fluorescence intensity from the experimental control sample without guanine exchange factor (GEF). The Extent of binding is the difference between the maximal fluorescence intensity of the DMSO control sample versus the initial fluorescence recorded for the No GEF control sample.
Percent Inhibition and compound concentration are experimental values.

RalB Tyr82Phe mutant = biological target: T2, RalB Tyr82Phe mutant (Homo sapiens, UniProt P11234, Y82F); assay: Rgl2-mediated guanine nucleotide exchange assay, RalB Tyr82Phe mutant; type: biochemical
T2 construct: made in house; host or cells: E. coli BL21(DE3)
T2 sequence (P11234 12-185 Y82F): T1 sequence (P11234 12-185) with Y71F
Description: as §1, with “To confirm that inhibition of RalB exchange by Rgl2 was due to covalent bond formation at Tyr-82, the nucleotide exchange study was repeated using RalB Tyr82Phe mutant. […] A” for “A”
as §2, §3, §4, §5
Percent Inhibition and compound concentration are experimental values. Maximum inhibition is set at 100 percent as no plateau were achieved. Minimum inhibition value was data-dependent and were mostly found to be near 0 percent. Due to the fact that the compounds were covalent inhibitors and not classical reversible inhibitors, Hillslope value was not constrained.

[1] = Compound stability assay in buffer; type: physicochemical
Description: Compound Stability Assay. 200 μM Compound 1 was incubated in a buffer containing 20 mM Tris pH 8.0, 100 mM NaCl, 10 mM MgCl2 at 4° C. for varying amounts time. After the incubation, the samples were centrifuged at 20,000×g for 10 min to remove precipitants prior to being injected into an Agilent EclipsePlus C18 RRHD column (Agilent, Santa Clara, Calif.) on an Agilent 1200 liquid chromatography system (Agilent, Santa Clara, Calif.), using a linear gradient from 100% Buffer A (H2O with 0.1% Formic Acid) to 70% Buffer B (acetonitrile with 0.1% Formic Acid), and the masses were detected on an Agilent 6520 Accurate Mass Q-TOF.

RalA = biological target: T3, RalA (Homo sapiens, UniProt P11233); assay: Rgl2-mediated guanine nucleotide exchange assay, RalA; type: biochemical; details: concentration not given
T3 construct: made in house; host or cells: E. coli BL21(DE3)
T3 sequence (P11233 1-178): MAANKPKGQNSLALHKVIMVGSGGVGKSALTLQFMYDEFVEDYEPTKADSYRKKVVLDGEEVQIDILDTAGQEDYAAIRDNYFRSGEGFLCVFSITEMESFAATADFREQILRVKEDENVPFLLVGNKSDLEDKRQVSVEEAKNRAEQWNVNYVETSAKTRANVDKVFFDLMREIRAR
Description: To further probe the contribution of individual amino acids within the binding site of Compound 1, the effect of the compound on the rate of nucleotide exchange was tested against two RalB mutants, Ser85Ala and Thr69Ala.
as §2, §3, §4
The rate constant of the exchange was calculated by fitting experimental values for Fluorescence Intensity and corresponding Time. […]

[2] = system: Pa03C pancreatic cancer cell; assay: Pa03C pancreatic cancer cell growth in 3-D co-culture with fibroblasts; type: cell-based; details: relative to media or DMSO
[3] = IC50 at 24 h (μM) RalB WT, 24 h incubation at 4° C.

Row | Structure (SMILES) | IC50 (RalB; [3]) [µM] | IC50 (RalB Tyr82Phe mutant) [µM] | other results
1 | CCc1ccc(NS(=O)(=O)c2ccc(S(=O)(=O)F)cc2)cn1 [Compound 13] | 164 ± 26 | – | –
2 | COc1cccc(NS(=O)(=O)c2ccc(S(=O)(=O)F)cc2)n1 [Compound 22] | 64 ± 4.1 | – | –
3 | COc1cc(Cl)nc(NS(=O)(=O)c2ccc(S(=O)(=O)F)cc2)c1 [Compound 21] | 24 ± 1 | 138 ± 34.2 | –
4 | COc1cc(NS(=O)(=O)c2ccc(S(=O)(=O)F)cc2)ccn1 [Compound 12] | 146 ± 14.2 | – | –
5 | O=S(=O)(F)c1ccc(S(=O)(=O)Nc2cccnc2O)cc1 [Compound 3] | 17 ± 7.7 | 79.3 ± 19 | –
6 | CC(C)Oc1cncc(NS(=O)(=O)c2ccc(S(=O)(=O)F)cc2)c1 [Compound 16] | 79.5 ± 2.3 | 333 ± 31 | –
7 | COc1cccc(NS(=O)(=O)c2ccc(S(=O)(=O)F)cc2)c1 [Compound 11] | 26 ± 4.6 | 164 ± 42.3 | –
8 | O=S(=O)(F)c1ccc(S(=O)(=O)Nc2ncccc2Cl)cc1 [Compound 4] | 41.7 ± 8.5 | 215 ± 84.5 | –
9 | CCOc1cncc(NS(=O)(=O)c2ccc(S(=O)(=O)F)cc2)c1 [Compound 15] | 85.5 ± 7.9 | 235 ± 167 | –
10 | COc1ncccc1NS(=O)(=O)c1ccc(S(=O)(=O)F)cc1 [Compound 2] | 23.1 ± 6.8 | – | improvement in IC50 at 24 h compared to Compound 1 (RalB): 2 fold; IC50 at 24 h (μM) RalB Tyr82Phe (RalB Tyr82Phe mutant; 24 h incubation at 4° C., NI = No Inhibition): no inhibition
11 | CCc1cncc(NS(=O)(=O)c2ccc(S(=O)(=O)F)cc2)c1 [Compound 14] | 91.4 ± 2.9 | 167 ± 8.7 | –
12 | COc1ncccc1NS(=O)(=O)c1ccc(S(=O)(=O)F)c2c1CCCC2 [SOF-371] | – | – | inhibition of RalB exchange (RalB; 24 h incubation at 4° C.): inhibits RalA and Ral B exchange; inhibition of Y82F (RalB Tyr82Phe mutant; 24 h incubation at 4° C.): inhibits Y82F; stability relative to Compound 1 [1]: higher stability than Compound 1; inhibition of RalA exchange (RalA): inhibits RalA and Ral B exchange
13 | O=S(=O)(F)c1ccc(S(=O)(=O)Nc2cccc(F)n2)cc1 [Compound 6] | 51.5 ± 5.2 | – | –
14 | O=S(=O)(F)c1ccc(S(=O)(=O)Nc2cncc(Cl)n2)cc1 [Compound 7] | 49.4 ± 3.5 | – | –
15 | O=S(=O)(F)c1ccc(S(=O)(=O)Nc2cccc(Cl)n2)cc1 [Compound 5] | 24.4 ± 4.9 | – | improvement in IC50 at 24 h compared to Compound 1 (RalB): 2 fold
16 | COc1ccc(Cl)c(NS(=O)(=O)c2ccc(S(=O)(=O)F)cc2)n1 [Compound 23] | 127 ± 11.7 | – | –
17 | COc1ccc(NS(=O)(=O)c2ccc(S(=O)(=O)F)cc2)cc1 [Compound 9] | 60.3 ± 3 | 100 ± 11.1 | –
18 | COc1cc(F)cc(NS(=O)(=O)c2ccc(S(=O)(=O)F)c3c2OCCO3)c1 [SOF-531] | – | – | inhibition of Pa03C pancreatic cancer cell growth [2]: concentration-dependent inhibition
19 | CS(=O)(=O)c1ccc(NS(=O)(=O)c2ccc(S(=O)(=O)F)cc2)cn1 [Compound 10] | 147 ± 42 | 238 ± 55.4 | –
20 | COc1cncc(NS(=O)(=O)c2ccc(S(=O)(=O)F)cc2)c1 [Compound 1] | 49.5 ± 2.3 | – | IC50 (RalB; IC50 at 6 h, Rgl2-mediated exchange of RalB, 6 h incubation at 4° C.): 153 ± 29.9 µM; IC50 (RalB Tyr82Phe mutant; read-out: IC50 at 24 h (μM) RalB Tyr82Phe, 24 h incubation at 4° C., NI = No Inhibition): > 100 µM
